This is an account of results in ChEMBL document CHEMBL3714741, “Compounds and compositions as ITPKB inhibitors” (2011).

Calls of active or inactive are those of the source. How the calls were made is not given here.

The target in one assay is T1, Kinase (Mus musculus, UniProt B2RXC2).
T1 sequence (B2RXC2 whole entry): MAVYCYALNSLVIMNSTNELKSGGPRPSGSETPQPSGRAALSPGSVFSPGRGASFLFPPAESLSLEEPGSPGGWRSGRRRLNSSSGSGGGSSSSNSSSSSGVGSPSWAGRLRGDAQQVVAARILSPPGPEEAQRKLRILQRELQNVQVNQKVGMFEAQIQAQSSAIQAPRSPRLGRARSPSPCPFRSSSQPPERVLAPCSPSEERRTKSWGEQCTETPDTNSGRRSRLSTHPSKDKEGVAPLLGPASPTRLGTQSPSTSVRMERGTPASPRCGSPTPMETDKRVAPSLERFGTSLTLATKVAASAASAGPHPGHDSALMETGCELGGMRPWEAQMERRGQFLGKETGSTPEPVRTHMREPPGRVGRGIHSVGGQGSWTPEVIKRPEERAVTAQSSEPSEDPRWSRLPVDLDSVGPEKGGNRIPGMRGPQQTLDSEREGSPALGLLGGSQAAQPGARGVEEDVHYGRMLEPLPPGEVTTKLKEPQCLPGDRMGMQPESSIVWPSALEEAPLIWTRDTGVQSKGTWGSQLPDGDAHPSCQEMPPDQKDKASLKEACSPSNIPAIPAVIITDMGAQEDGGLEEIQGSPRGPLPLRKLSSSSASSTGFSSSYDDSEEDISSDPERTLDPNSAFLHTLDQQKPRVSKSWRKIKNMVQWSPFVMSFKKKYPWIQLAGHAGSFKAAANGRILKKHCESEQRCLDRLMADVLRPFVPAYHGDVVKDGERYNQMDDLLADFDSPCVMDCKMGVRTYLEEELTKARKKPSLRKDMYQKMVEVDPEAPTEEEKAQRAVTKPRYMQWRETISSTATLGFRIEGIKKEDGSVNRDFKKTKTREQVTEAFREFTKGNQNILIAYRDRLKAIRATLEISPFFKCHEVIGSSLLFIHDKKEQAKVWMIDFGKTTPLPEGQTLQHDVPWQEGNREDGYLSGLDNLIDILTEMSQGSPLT
Description: Inhibition of mouse ITPKb (640 to 942 residues) expressed in Escherichia coli HK100 assessed as reduction in phosphorylation of IP3 to IP4 incubated for 60 mins by kinase-Glo ATP depletion assay.

Assay [1] has as its target T2, Inositol-trisphosphate 3-kinase B (Homo sapiens) (UniProt P27987).
T2 sequence (whole entry): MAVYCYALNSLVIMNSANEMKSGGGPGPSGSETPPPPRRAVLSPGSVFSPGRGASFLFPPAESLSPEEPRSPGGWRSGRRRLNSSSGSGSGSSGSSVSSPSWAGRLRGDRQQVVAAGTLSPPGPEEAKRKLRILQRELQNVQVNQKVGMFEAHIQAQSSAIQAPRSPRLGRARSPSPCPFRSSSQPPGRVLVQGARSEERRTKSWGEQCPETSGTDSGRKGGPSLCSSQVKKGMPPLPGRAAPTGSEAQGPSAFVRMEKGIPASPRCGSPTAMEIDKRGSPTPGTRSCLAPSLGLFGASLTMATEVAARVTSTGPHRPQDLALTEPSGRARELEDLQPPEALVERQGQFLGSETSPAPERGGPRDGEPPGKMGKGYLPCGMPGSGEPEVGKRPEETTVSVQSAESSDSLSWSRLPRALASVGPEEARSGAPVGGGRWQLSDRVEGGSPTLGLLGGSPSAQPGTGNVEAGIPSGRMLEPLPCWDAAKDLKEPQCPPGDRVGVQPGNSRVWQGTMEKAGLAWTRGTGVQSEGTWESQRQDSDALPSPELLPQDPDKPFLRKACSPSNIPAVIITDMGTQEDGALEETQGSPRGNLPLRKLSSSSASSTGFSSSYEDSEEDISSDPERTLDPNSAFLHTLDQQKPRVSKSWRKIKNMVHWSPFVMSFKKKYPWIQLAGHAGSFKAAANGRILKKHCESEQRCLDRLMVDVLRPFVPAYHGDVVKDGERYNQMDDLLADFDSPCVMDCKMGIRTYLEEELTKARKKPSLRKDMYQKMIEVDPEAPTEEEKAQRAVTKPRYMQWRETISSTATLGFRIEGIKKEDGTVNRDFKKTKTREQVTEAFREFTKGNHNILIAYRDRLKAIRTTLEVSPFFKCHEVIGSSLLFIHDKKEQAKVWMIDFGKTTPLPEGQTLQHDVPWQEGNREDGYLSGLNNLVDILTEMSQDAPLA
Description: Inhibition of ITPKb in human Jurkat cells assessed as reduction in conversion of IP3 to IP4 using [3H]-myo-inositol incubated for 5 mins by beta-RAM radio-HPLC method. It is filed as cell-based.

For orientation: IC50 means the midpoint of a concentration-inhibition curve. `Cc1cnc(-c2n[nH]cc2CN2CCN(c3ccc(C(F)(F)F)cn3)[C@H](C)C2)[nH]1`: the IC50 on Kinase amounted to 10 µM. In assay [1], the inhibition result was “Active”.
